Assay: toxicity / lethal concentration LC50
Assay type: in vivo

Row | SMILES | toxicity (in words) (in vivo) | LC50 (in vivo) | risk for human toxicity (in words) (concluded from available results of mammalian HFC (hydrofluorocarbon) tests)
1 | O=C(C(F)(F)F)C(F)(C(F)(F)F)C(F)(F)F [C5-ketone, 1,1,1,3,4,4,4-heptafluoro-3-(trifluoromethyl)butan-2-one] | practically non-toxic |  | 
2 | O=C(C(F)(F)C(F)(F)F)C(F)(C(F)(F)F)C(F)(F)F [C6-ketone, 1,1,1,2,4,4,5,5,5-Nonafluoro-2-(trifluoromethyl)pentan-3-one] | non-toxic | about 100'000 ppm | 
3 | FC(F)(F)COC(F)(F)F [2,2,2-trifluoroethyl-trifluoromethyl ether] |  |  | low risk for human toxicity
